How the values were obtained:
[1] = test system: VX2 tumor slices; assay: Glycolysis (lactic acid formation) in VX2 tumor slices; assay type: cell-based, rabbit
Experimental: Glycolysis was assayed by monitoring the formation of lactic acid following the addition of glucose to a medium containing VX2 tumor slices. Specifically, freshly excised tumors were washed 3 times at 4° C. in 20 ml Chance Hess Medium containing 6.2 mM KCl, 154 mM NaCl, and 11 mM NaPi, pH 7.4. Slices, 1 g each, were then prior incubated for 30 min in a Lab-Line incubator-shaker at 37° C. in 2 ml of the same medium while shaking at 50 rpm. Glucose was then added to give a final concentration of 6 mM, after which the incubation/shaking process was continued with 0.2 ml samples being removed every 30 min for up to 2 h. These samples were subjected to centrifugation at 14,000 rpm in an Eppendorf Centrifuge (Model 5415C). Then, aliquots of the supernatant, 0.01 ml, were removed from each sample, diluted with 0.03 ml of water and subjected to lactic acid determination using the kit supplied by Sigma. The latter contains, in addition to lactic dehydrogenase and NAD+, hydrazine, and glycine buffer, pH 9.2. The mixture was incubated for 30 min at 25° C. after which the absorbance due to formation of NADH was determined at 340 nm using a Gilford Model 260 spectrophotometer. To assess the elevation of the glycolytic activity of the VX2 tumor over that of liver tissue, parallel studies were always carried out in an identical manner with 1 g liver slices derived from the host liver. Finally, in those cases where agents were tested for their capacity to inhibit glycolysis, these were introduced into the system at the prior incubation step with all subsequent steps being run in parallel with those described above for the VX2 tumor or liver alone.
The screen included the following 9 compounds: 2-deoxyglucose (2DOG), 2-fluoro-2-deoxyglucose, 6-fluoro-6-deoxyglucose, 3-O-methyl glucose, 5-thio-D-glucose-6-phosphate, L-glucose, D-xylose, D-lyxose, and 3-bromopyruvic acid (3BrPA). The screen was conducted by incubating VX2 tumor slices in a medium containing 6 mM glucose with 6 mM of each of these agents at 37° C. for 5 h. The use of 6 mM glucose in the medium was used to mimic the maximal amount of glucose that might be in the blood in a real in vivo situation.
With the above preliminary data at hand, only two of the 9 compounds screened were studied in more detail. One was 2DOG because under certain conditions it is known to inhibit glycolysis when it is phosphorylated by hexokinase to 2DOG-6-P which cannot be further metabolized. The other compound tested in more detail was 3BrPA because of its effectiveness as a glycolytic inhibitor in the preliminary screen.

[2] = test system: liver implanted VX2 tumors; assay: Direct intraarterial injection into liver implanted VX2 tumors, tumor histology; assay type: in vivo, rabbit; settings: single intraarterial injection
From the text: The rabbit VX2 tumor was selected for implantation in the liver because of the similarities of its blood supply to that of human hepatomas. Other attributes of this tumor include rapid tumor growth, development of a sizable tumor that can be readily identified by x-ray imaging (fluoroscopy), and a biochemical phenotype characteristic of advanced stage tumors, i.e., high glycolysis and elevated levels of mitochondrial bound hexokinase. In addition, the rabbit is large enough that selective manipulation of catheters in the hepatic artery from the common femoral artery for delivery of agents is possible. Adult New Zealand white rabbits (32 total, Robinson Services, Inc.) weighing 3.5-4.2 kg were used. Studies with these animals were approved by the Johns Hopkins University Animal Care and Use Committee and carried out according to their guidelines. For successful implantation of the VX2 tumor into the liver, it was first grown for 2 weeks on the hind leg of a carrier rabbit. Each carrier rabbit was used to supply tumor cells for implantation into the left lobe of the liver of 2 separate rabbits. All animals, carriers and recipients, were anesthetized with a mixture of acepromazine (2.5 mg/kg) and ketamine hydrochloride (44 mg/kg) administered intramuscularly. Intravenous access was gained via a marginal ear vein and sodium pentothal was given intravenously to maintain anesthesia. The VX2 tumor was then excised from the carrier rabbit and placed in Hanks solution. Chunks of the tumor were minced in the same solution. Then, the abdomens of the recipient rabbits were shaved and prepped with betadine after which a midline subxyphoid incision was made. The anterior surface of the liver was exposed and tumor cells (0.1-0.2 ml) from the minced donor tumor were directly implanted onto the left lobe of the liver using the outer cannula of a 21-gauge angiocatheter. This method allows the growth of a single solitary, well-demarcated tumor in the liver of each recipient rabbit. The abdomen was closed in 2 layers. Proper aseptic technique was rigorously observed during each implantation. After surgery, animals were returned to their cages, kept warm with blankets, and monitored in the animal laboratory under the direct supervision of a physician or a technician until they recovered from anesthesia. […] The tumors were allowed to grow for another 14 days at which time they reached an ellipsoidal shape with dimension of approximately 1.5×1.8×2.5 cm. […]
Administration of anesthesia, intravenous access and sodium pentothal anesthesia were carried out as described in Example 12. […] The tumor could readily be visualized as a region of hypervascular blush located on the left side of the liver near the gastric fundus. […]

Compound: O=C(O)C(=O)CBr [3BrPA, 3-bromopyruvic acid]
- inhibition of VX2 tumor glycolysis in the limited screen ([1]; 6 mM agent, 6 mM glucose, 37° C., 5 h): almost completely inhibited
- IC50 ([1]; Oryctolagus cuniculus, 0.5 h, read-out: half maximal inhibition of glycolysis): 2.4 mM
- concentration for maximal or complete inhibition of glycolysis ([1]; VX2 tumor slices, agent prior incubated 30 min at 37° C.): about 15 mM
- maximal number of non-viable cells observed in any one experiment [2]: 90%
- total non-viable cells in the tumor ([2]; 25 ml 0.5 mM, 4 days): 84±5%
- viable cells in the tumor ([2]; 25 ml 0.5 mM, 4 days): 16±5%
- necrosis in tumor sections outside the central core region ([2]; 4 days): ~100%
